In US20260132103A1, “Bumetanide Derivatives for the Therapy of Stroke and Other Neurological Diseases/Disorders Involving NKCCs” (University of Pittsburgh - Of the Commonwealth System of …, priority 2018, published 2026):

Legend:
[1] = tested on: transient focal cerebral ischemia (tMCAO) in mice; assay: Grid walking foot-fault test after tMCAO; assay type: in vivo, mouse; details: day 3 post-stroke
Source text: FIGS. 2A-2D: Efficacy of NKCC1 inhibitors on improving neurological function in mice after tMCAO (see Example 3). (A) Neurological score, (B) corner test, (C) foot-fault test, and (D)-(E) adhesive tape test during 1-14 day after tMCAO. Data are mean±SD, n=4-9. *p<0.05 for DMSO vs STS66, **p<0.05 for DMSO vs STS5, ***p<0.05 for DMSO vs BMT, #p<0.05 for BMT vs STS66, ###p<0.05 for STS5 vs STS66.
Transient focal cerebral ischemia was induced in mice by intraluminal occlusion of the left middle cerebral artery (MCA) for 50 min as described previously (Chen H et al., 2005). Mice were anesthetized with 3% isoflurane in 70%: 30% N2O/O2 until they were unresponsive to the tail pinch test. Animals were then fitted with a nose cone blowing 1.5% isoflurane for anesthesia maintenance. The left common carotid artery was exposed and the occipital artery branches of the external carotid artery were isolated and coagulated. The internal carotid artery was isolated and the extracranial branch was dissected and ligated. […]
The grid walking test is sensitive to deficits in descending motor control. […] The data were expressed as the number of foot fault errors made by the forelimbs contralateral to the injured hemisphere as a percentage of total steps (Jun Zhang, et al., 2017).

GL26 and SB28-GFP cells [2] = assay: Rubidium uptake assay (Rb+ influx); assay type: cell-based, mouse
Method: FIGS. 4A-4B: Rb^+ influx was measured in GL26 and SB28-GFP cells in either isotonic (10 min) or hypertonic (5 min) solutions using ICR 8000 machine. (4A) Cells were exposed to isotonic or hypertonic solutions with BMT (10 μM) or STS66 (10 μM). (4B) Cells were exposed to isotonic or hypertonic solutions with different concentrations of STS66 (0 to 40 μM). Results are expressed as means±SEM from four independent experiments. **P<0.01, ***P<0.001, ****P<0.0001.
FIG. 5: GL26 cells and SB28-GFP cells were first exposed to BMT (10 μM) and different concentration of STS66 (10, 20 and 40 μM) for 48 h, and Rb^+ influx was measured in either isotonic (10 min) or hypertonic (5 min) solutions using ICR 8000 machine. Results are expressed as means±SEM from four independent experiments. *P<0.05, **P<0.01, ***P<0.001, ****P<0.0001.
GL26 and SB28-GFP cells were seeded in 24-well plates and the rubidium uptake assay was performed on cells that were 60% confluent. TMZ was added to cells for 48 hr incubation. The medium was then removed from the wells and washed with wash buffer (Rb^+ free). After wash buffer was aspirated, isotonic and hypertonic solutions (contain Rb^+) with BMT were added, and cells were incubated at 37° C. for 5 min. […] The Rb^+ concentration was measured using an automated atomic absorption spectrophotometer (Ion Channel Reader, ICR-8000; Aurora Biomed, Vancouver, Canada).

GL26 and SB28-GFP cells [3] = assay: BrdU proliferation assay; assay type: cell-based, mouse; details: 48 h drug treatment, compared to BMT
Method: FIG. 7: BrdU incorporation of GL26 cells and SB28-GFP cells following 48 h drug treatment. Data are means±SEM from three independent experiments. **P<0.01, ***p<0.001, ****p<0.0001.
Cell proliferation of GL26 and SB28-GFP cells was measured by quantifying BrdU incorporation. GL26 cells (5×10^3 cells/well) or SB28-GFP cells (1×10^3 cells/well) were seeded in 96-well plates in 100 μL media. After 24 hours in culture, cells were incubated with fresh medium plus the following reagents: DMSO vehicle (Con-Veh), BMT (B, 10 μM), TMZ (100 μM), or TMZ+B for 48 h. BrdU was added in the last 4 h period of the whole 48 h incubation. The incorporation of BrdU into newly synthesized DNA of proliferating cells was detected by using a peroxidase-conjugated antibody which reacts with the thymidine analogue BrdU. Bound anti-BrdU-peroxidase conjugated antibody was measured by a substrate reaction, and then quantified colorimetrically by an ELISA plate reader (Spectra MAX 190, Molecular Devices, Sunnyvale, CA) at dual wavelength of 450/550 nm.

CCCCNc1cc(CNCC(F)(F)F)cc(S(N)(=O)=O)c1Oc1ccccc1 [STS66, 3-(Butylamino)-2-phenoxy-5-[(2,2,2-trifluoroethylamino)methyl]benzenesulfonamide]
foot-fault rate [1]: 12.5±2.5% | Rb+ influx inhibition, 48 h incubation (GL26 and SB28-GFP cells [2]; drugs incubated for 48 h, BMT 10 μM, STS66 10, 20 and 40 μM): inhibited the Rb^+ influx better than BMT | Rb+ influx inhibition, short incubation (GL26 and SB28-GFP cells [2]; drugs incubated for short time: isotonic (10 min) or hypertonic (5 min) solutions, STS66 0 to 40 μM): does not inhibit Rb^+ influx | inhibition of cell proliferation (BrdU incorporation) (GL26 and SB28-GFP cells [3]): more inhibition of GL26 and SB28-GFP cell proliferation than BMT
